Reference: patent US20220306695A1, “COMPSTATIN ANALOGUES AND THEIR MEDICAL USES” (priority 2019, published 2022)
Read-outs that look alike come from different tables or passages of the source. Positions of bridges follow the written chain, without caps; N, C: chain ends. Non-standard residues stand in square brackets, D forms with d. Residues, ends and D or L forms follow the SMILES beside them. Nva = CCC[C@H](N)C(=O)O; Sar = CNCC(=O)O

Tests used:
[1] = Solubility test at 10 mg/mL (visual inspection and light scattering); format: physicochemical; conditions: for Solubility, Condition 1 Acetate pH 4: 10 mg/mL compound in 100 mM acetate pH 4; for Solubility, Condition 2 Acetate pH 5: 10 mg/mL compound in 100 mM acetate pH 5; for Solubility, Condition 3 Phosphate pH 6: 10 mg/mL compound in 100 mM phosphate pH 6; for Solubility, Condition 4 Phosphate pH 7: 10 mg/mL compound in 100 mM phosphate pH 7; for Solubility, Condition 5 Phosphate pH 7.5: 10 mg/mL compound in 100 mM phosphate pH 7.5
Protocol: The solubility of compounds was assessed by measuring light scattering over a pH interval from pH 4 to pH 7.5.
Compounds were dissolved in a stock solution of 20 mg/mL in H2O at pH 2.5 or pH 10.
These stock solutions were diluted 1:1 with 200 mM buffered solution to reach a final solution of 10 mg/mL compound in 100 mM buffer. The 5 investigated conditions were (1) acetate pH 4.0, (2) acetate pH 5.0, (3) phosphate pH 6.0, (4) phosphate pH 7 and (5) phosphate pH 7.5.
Visual inspection included manually checking the 96 well plate for wells that are clear or non-clear. In addition to this a picture of the 96 well plate is taken.
Absorbance was measured at four wavelengths: 280 nm, 325 nm, 340 nm and 360 nm in an UV transparent 96 well microplate in a SpectraMax 190 microplate reader (Molecular Devices).
The criteria for this was a combination of visual inspection and light scattering not exceeding 0.1 AU, where values below 0.1 AU are good in visually clear samples. […]

[2] = system: classical complement pathway; assay: In vitro haemolysis assay (inhibition of classical complement pathway); format: cell-based, human
In short: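 Serially diluted compound (9 points) was preincubated 15 min at room temperature with diluted human serum, titrated per batch to give 70-90% maximal haemolysis, in Tris/casein buffer pH 7.4 with Mg2+/Ca2+. Antibody-sensitized sheep erythrocytes were then added for 30 min at 37° C, and the reaction was stopped with EDTA. Haemolysis was read at A405, with IC50 from 4PL fit.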

[3] = Table 3, human serum, sensitized sheep red blood cells, read-out: IC50[nM], in vitro analysis of inhibition of hemolysis
[4] = Table 4, valine 3 versus isoleucine 3 pairs, read-out: CP hemolysis IC50
[5] = Table 5, different residues at position 3 of Ac-IC(1)XWQDWGEHRC(1)T-NH2, read-out: IC50, CP hemolysis

SMILES: CC[C@H](C)[C@H](NC(C)=O)C(=O)N[C@H]1CSSC[C@@H](C(=O)N[C@H](C(N)=O)[C@@H](C)O)NC(=O)[C@H](CCCNC(=N)N)NC(=O)[C@H](Cc2c[nH]cn2)NC(=O)[C@H](C)NC(=O)CNC(=O)[C@H](Cc2c[nH]c3ccccc23)NC(=O)[C@H](CC(=O)O)NC(=O)[C@H](CCC(N)=O)NC(=O)[C@H](Cc2c[nH]c3ccccc23)NC(=O)[C@H]([C@@H](C)CC)NC1=O [Compound 1] (Ac-ICIWQDWGAHRCT-NH2; disulfide 2-12)
- Solubility, Condition 1 Acetate pH 4 [1]: + (denotes solubility at the given condition, as determined by UV absorbance being less than 0.1 AU at 340 nm and the sample being clear when manually inspected.)
- Solubility, Condition 2 Acetate pH 5 [1]: − (denotes lack of solubility at the given condition, as UV absorbance at 340 nm exceeds 0.1 AU and/or it is visibly turbid or contains particles.)
- Solubility, Condition 3 Phosphate pH 6 [1]: − (denotes lack of solubility at the given condition, as UV absorbance at 340 nm exceeds 0.1 AU and/or it is visibly turbid or contains particles.)
- Solubility, Condition 4 Phosphate pH 7 [1]: − (denotes lack of solubility at the given condition, as UV absorbance at 340 nm exceeds 0.1 AU and/or it is visibly turbid or contains particles.)
- Solubility, Condition 5 Phosphate pH 7.5 [1]: − (denotes lack of solubility at the given condition, as UV absorbance at 340 nm exceeds 0.1 AU and/or it is visibly turbid or contains particles.)
- IC50 ([2]; Table 2, human serum, sensitized sheep red blood cells, read-out: CP hemolysis IC50): 150 nM
- IC50 [2, 3]: < 250 nM

SMILES: CC[C@H](C)[C@H](NC(=O)[C@H](C)NC(=O)[C@H](CO)NC(=O)[C@H](CO)NC(=O)[C@H](CCC(=O)O)NC(C)=O)C(=O)N[C@H]1CSSC[C@@H](C(=O)N[C@H](C(N)=O)[C@@H](C)O)NC(=O)[C@H](CCCNC(=N)N)NC(=O)[C@H](Cc2c[nH]cn2)NC(=O)[C@H](CCC(=O)O)NC(=O)CNC(=O)[C@H](Cc2c[nH]c3ccccc23)NC(=O)[C@H](CC(=O)O)NC(=O)[C@H](CCC(N)=O)NC(=O)[C@H](Cc2c[nH]c3ccccc23)NC(=O)[C@H]([C@@H](C)CC)NC1=O [Compound 3] (Ac-ESSAICIWQDWGEHRCT-NH2; disulfide 6-16)
- Solubility, Condition 1 Acetate pH 4 [1]: + (denotes solubility at the given condition, as determined by UV absorbance being less than 0.1 AU at 340 nm and the sample being clear when manually inspected.)
- Solubility, Condition 2 Acetate pH 5 [1]: − (denotes lack of solubility at the given condition, as UV absorbance at 340 nm exceeds 0.1 AU and/or it is visibly turbid or contains particles.)
- Solubility, Condition 3 Phosphate pH 6 [1]: − (denotes lack of solubility at the given condition, as UV absorbance at 340 nm exceeds 0.1 AU and/or it is visibly turbid or contains particles.)
- Solubility, Condition 4 Phosphate pH 7 [1]: + (denotes solubility at the given condition, as determined by UV absorbance being less than 0.1 AU at 340 nm and the sample being clear when manually inspected.)
- Solubility, Condition 5 Phosphate pH 7.5 [1]: + (denotes solubility at the given condition, as determined by UV absorbance being less than 0.1 AU at 340 nm and the sample being clear when manually inspected.)
- IC50 [2, 3]: < 100 nM
- IC50 [2, 4]: 69 nM

SMILES: CC[C@H](C)[C@H](NC(C)=O)C(=O)N[C@H]1CSSC[C@@H](C(=O)N[C@H](C(=O)NCC(=O)N[C@@H](C)C(=O)N[C@@H](CCC(=O)O)C(=O)N[C@@H](CO)C(N)=O)[C@@H](C)O)NC(=O)[C@H](CCCNC(=N)N)NC(=O)[C@H](Cc2c[nH]cn2)NC(=O)[C@H](CCC(=O)O)NC(=O)CNC(=O)[C@H](Cc2c[nH]c3ccccc23)NC(=O)[C@H](CC(=O)O)NC(=O)[C@H](CCC(N)=O)NC(=O)[C@H](Cc2c[nH]c3ccccc23)NC(=O)[C@H](C(C)C)NC1=O [D, reference compound] (Ac-ICVWQDWGEHRCTGAES-NH2; disulfide 2-12)
- IC50 [2, 4]: 210 nM

SMILES: CC[C@H](C)[C@H](NC(C)=O)C(=O)N[C@H]1CSSC[C@@H](C(=O)N[C@H](C(N)=O)[C@@H](C)O)NC(=O)[C@H](CO)NC(=O)[C@H](Cc2c[nH]cn2)NC(=O)[C@H](CCC(=O)O)NC(=O)CNC(=O)[C@H](Cc2c[nH]c3ccccc23)NC(=O)[C@H](CC(=O)O)NC(=O)[C@H](CCC(N)=O)NC(=O)[C@H](Cc2c[nH]c3ccccc23)NC(=O)[C@H](C(C)C)NC1=O [F, reference compound] (Ac-ICVWQDWGEHSCT-NH2; disulfide 2-12)
- IC50 [2, 4]: 540 nM

SMILES: CC[C@H](C)[C@H](NC(C)=O)C(=O)N[C@H]1CSSC[C@@H](C(=O)N[C@@H](CO)C(N)=O)NC(=O)[C@H](CCCNC(=N)N)NC(=O)[C@H](Cc2c[nH]cn2)NC(=O)[C@H](CCC(=O)O)NC(=O)CNC(=O)[C@H](Cc2c[nH]c3ccccc23)NC(=O)[C@H](CC(=O)O)NC(=O)[C@H](CCC(N)=O)NC(=O)[C@H](Cc2c[nH]c3ccccc23)NC(=O)[C@H](C(C)C)NC1=O [G, reference compound] (Ac-ICVWQDWGEHRCS-NH2; disulfide 2-12)
- IC50 [2, 4]: 180 nM

SMILES: CC[C@H](C)[C@H](NC(=O)[C@H](C)NC(=O)[C@H](CO)NC(=O)CNC(=O)[C@H](CCC(=O)O)NC(C)=O)C(=O)N[C@H]1CSSC[C@@H](C(=O)N(C)CC(=O)N[C@@H](CCC(=O)O)C(N)=O)NC(=O)[C@H](CCCNC(=N)N)NC(=O)[C@H](Cc2c[nH]cn2)NC(=O)[C@H](CCC(=O)O)NC(=O)CNC(=O)[C@H](Cc2c[nH]c3ccccc23)NC(=O)[C@H](CC(=O)O)NC(=O)[C@H](CCC(N)=O)NC(=O)[C@H](Cc2c[nH]c3ccccc23)NC(=O)[C@H](C(C)C)NC1=O [H, reference compound] (Ac-EGSAICVWQDWGEHRC[Sar]E-NH2; disulfide 6-16)
- IC50 [2, 4]: 330 nM

SMILES: CC[C@H](C)[C@H](NC(C)=O)C(=O)N[C@H]1CSSC[C@@H](C(=O)N[C@H](C(=O)N[C@@H](CCC(=O)O)C(=O)NCC(=O)N[C@@H](CCC(=O)O)C(N)=O)[C@@H](C)O)NC(=O)[C@H](CCCNC(=N)N)NC(=O)[C@H](Cc2c[nH]cn2)NC(=O)[C@H](CCC(=O)O)NC(=O)CNC(=O)[C@H](Cc2c[nH]c3ccccc23)NC(=O)[C@H](CC(=O)O)NC(=O)[C@H](CCC(N)=O)NC(=O)[C@H](Cc2c[nH]c3ccccc23)NC(=O)[C@H](C(C)C)NC1=O [J, reference compound] (Ac-ICVWQDWGEHRCTEGE-NH2; disulfide 2-12)
- IC50 [2, 4]: 240 nM

SMILES: CC(C)C[C@H](N)C(=O)O [Leucine, reference compound]
- IC50 [2, 5]: 500 nM

SMILES: CCCC[C@H](N)C(=O)O [Norleucine, reference compound]
- IC50 ([2]; Table 5, different residues at position 3 of Ac-IC(1)[…](1)T-NH2, read-out: IC50, CP hemolysis): 480 nM

SMILES: CCC[C@@H]1NC(=O)[C@@H](NC(=O)[C@@H](NC(C)=O)[C@@H](C)CC)CSSC[C@@H](C(=O)N[C@H](C(N)=O)[C@@H](C)O)NC(=O)[C@H](CCCNC(=N)N)NC(=O)[C@H](Cc2c[nH]cn2)NC(=O)[C@H](CCC(=O)O)NC(=O)CNC(=O)[C@H](Cc2c[nH]c3ccccc23)NC(=O)[C@H](CC(=O)O)NC(=O)[C@H](CCC(N)=O)NC(=O)[C@H](Cc2c[nH]c3ccccc23)NC1=O [Norvaline, reference compound] (Ac-IC[Nva]WQDWGEHRCT-NH2; disulfide 2-12)
- IC50 [2, 5]: > 1000 nM

SMILES: N[C@@H](Cc1ccccc1)C(=O)O [Phenylalanine, reference compound]
- IC50 [2, 5]: > 10000 nM
